According to patent publication US20090285766A1, “Photosensitising Composition and Uses Thereof” (National University of Singapore, priority 2005, published 2009):

Test system: Fibroblast L 929
Assay: Cytotoxic effect of PDT on fibroblasts (MTT)
Assay type: cell-based
Conditions: 100 μM photosensitiser, oxygen carrier, 20 min irradiation, MTT after 24 hours; hypochlorite 100 μL of 5.25%
Protocol: The experiment described below was performed to assess the cytotoxic effect of PDT in combination with two photosensitisers: […] Sodium hypochlorite is traditionally used to disinfect root canals. Fibroblast L 929 was used in this experiment. Approximately 3.2×10^5 cells were seeded in 4 cm diameter culture dishes in DMEM media supplemented with 10% FCS. Cells were grown by incubating at 37° C., in a carbon dioxide incubator for 24 hours. After the incubation period, 100 μL of ICG (1 mM) was added (the final concentration of ICG was 100 μM). 100 μL of oxygen carrier, perfluorodecahydro naphthalene,] was also added and irradiation was performed for 20 minutes (without shaking). The cells were left in the media for 24 hours under incubation. Later, the supernatant media was removed without disturbing the cell line. The cell layer was washed with 1 mL PBS twice. MTT (0.125 mg % in DMEM), as an indicator of the viable status of cells in the media was added to the Petri dish and incubated at 37° C., for 4 hours. The excess of dye was washed with PBS (2 mL). MTT formed in the Petri dish was extracted and added to 1 mL of DMSO. The optical density at 570 nm was measured. Sodium hypochlorite (100 μL of 5.25%) was used as a control in this experiment. All chemicals were purchased from Sigma Aldrich, St. Louis. Fibroblast L 929 was used in this experiment. […] The optical density at 570 nm was measured. […]

CC1(C)C(/C=C/C=C/C=C/C=C2\N(CCCCS(=O)(=O)O)c3ccc4ccccc4c3C2(C)C)=[N+](CCCCS(=O)(=O)[O-])c2ccc3ccccc3c21 [ICG, Indocyanine Green]
cytotoxicity (cells surviving after PDT, ranking): lesser cytotoxicity
